Measurements from patent US8691865B2 (AbbVie Inc., priority 2008, dated 2014).

target: human Cav2.2 (Homo sapiens, UniProt Q00975); experiment: Assessment of calcium channel activity using FLIPR (Ca2+ influx in IMR32 cells); format: cell-based; conditions: not given
Method in brief: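 Human neuroblastoma IMR32 cells were seeded at 1−1.2×10^5 cells/well and cultured 48 h at 37 °C before FLIPR calcium influx measurement. Percent inhibition at each concentration was calculated against the no-inhibitor signal, and IC50 came from sigmoidal dose-response fits.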

Sequence of human Cav2.2 (Q00975 whole entry): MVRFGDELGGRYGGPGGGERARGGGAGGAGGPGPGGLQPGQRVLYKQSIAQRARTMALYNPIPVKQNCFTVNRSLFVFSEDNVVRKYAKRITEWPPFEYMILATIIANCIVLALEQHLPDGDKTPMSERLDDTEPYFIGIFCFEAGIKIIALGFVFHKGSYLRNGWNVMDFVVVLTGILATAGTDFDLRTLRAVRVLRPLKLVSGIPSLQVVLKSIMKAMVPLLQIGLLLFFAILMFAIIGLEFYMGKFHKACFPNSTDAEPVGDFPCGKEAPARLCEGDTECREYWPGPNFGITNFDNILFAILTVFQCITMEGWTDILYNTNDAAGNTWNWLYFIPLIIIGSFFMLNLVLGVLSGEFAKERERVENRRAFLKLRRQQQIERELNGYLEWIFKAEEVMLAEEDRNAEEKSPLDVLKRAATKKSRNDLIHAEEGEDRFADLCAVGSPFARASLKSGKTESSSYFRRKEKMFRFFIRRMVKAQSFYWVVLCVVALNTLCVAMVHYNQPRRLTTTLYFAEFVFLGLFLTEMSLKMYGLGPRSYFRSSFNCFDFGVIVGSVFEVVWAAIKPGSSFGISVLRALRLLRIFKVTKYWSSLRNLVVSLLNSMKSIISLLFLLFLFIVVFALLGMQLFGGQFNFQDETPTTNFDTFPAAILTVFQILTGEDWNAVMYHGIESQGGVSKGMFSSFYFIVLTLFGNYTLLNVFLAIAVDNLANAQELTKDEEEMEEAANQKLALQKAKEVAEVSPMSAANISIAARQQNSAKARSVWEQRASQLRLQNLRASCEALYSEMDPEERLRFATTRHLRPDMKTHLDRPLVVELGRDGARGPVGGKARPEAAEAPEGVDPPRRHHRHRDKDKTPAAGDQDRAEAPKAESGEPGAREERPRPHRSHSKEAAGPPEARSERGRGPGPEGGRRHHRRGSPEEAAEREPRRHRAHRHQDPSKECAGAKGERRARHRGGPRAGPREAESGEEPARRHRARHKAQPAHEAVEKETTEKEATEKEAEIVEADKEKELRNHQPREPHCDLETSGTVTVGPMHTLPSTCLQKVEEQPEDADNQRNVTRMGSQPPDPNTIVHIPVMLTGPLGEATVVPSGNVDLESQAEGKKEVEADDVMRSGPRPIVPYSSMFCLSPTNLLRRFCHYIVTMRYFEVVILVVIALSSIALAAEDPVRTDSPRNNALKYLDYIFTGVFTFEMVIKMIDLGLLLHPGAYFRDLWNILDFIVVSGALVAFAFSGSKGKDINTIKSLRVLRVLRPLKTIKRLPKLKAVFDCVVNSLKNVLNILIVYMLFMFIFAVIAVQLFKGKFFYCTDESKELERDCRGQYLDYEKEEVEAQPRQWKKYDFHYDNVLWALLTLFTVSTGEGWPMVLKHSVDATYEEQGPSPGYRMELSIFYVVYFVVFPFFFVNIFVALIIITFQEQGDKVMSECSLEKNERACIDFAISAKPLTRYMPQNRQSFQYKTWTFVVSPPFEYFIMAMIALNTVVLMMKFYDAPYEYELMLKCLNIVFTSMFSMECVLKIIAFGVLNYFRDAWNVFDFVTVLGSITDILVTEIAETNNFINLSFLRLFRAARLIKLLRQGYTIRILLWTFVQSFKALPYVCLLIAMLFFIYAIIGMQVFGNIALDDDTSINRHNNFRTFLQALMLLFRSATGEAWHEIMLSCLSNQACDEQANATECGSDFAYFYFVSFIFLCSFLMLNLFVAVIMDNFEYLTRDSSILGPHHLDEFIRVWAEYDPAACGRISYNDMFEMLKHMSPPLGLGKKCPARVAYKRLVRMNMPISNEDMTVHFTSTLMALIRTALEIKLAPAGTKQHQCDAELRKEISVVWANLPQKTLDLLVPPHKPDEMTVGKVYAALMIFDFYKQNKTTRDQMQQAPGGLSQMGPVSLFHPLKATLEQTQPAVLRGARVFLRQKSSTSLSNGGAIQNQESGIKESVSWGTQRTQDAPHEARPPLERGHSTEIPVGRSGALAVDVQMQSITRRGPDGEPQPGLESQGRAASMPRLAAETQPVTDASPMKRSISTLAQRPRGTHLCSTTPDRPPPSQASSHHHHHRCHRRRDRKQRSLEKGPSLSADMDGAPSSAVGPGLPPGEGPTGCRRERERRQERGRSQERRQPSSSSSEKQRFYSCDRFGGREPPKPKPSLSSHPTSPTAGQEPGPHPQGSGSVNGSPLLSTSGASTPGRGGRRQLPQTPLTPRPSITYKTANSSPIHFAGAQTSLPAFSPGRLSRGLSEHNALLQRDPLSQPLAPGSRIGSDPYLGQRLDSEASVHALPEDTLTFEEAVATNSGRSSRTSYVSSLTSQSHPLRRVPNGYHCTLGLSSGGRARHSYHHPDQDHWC
Sequence of human Cav2.2 (P54289 25-956 partner limits assumed): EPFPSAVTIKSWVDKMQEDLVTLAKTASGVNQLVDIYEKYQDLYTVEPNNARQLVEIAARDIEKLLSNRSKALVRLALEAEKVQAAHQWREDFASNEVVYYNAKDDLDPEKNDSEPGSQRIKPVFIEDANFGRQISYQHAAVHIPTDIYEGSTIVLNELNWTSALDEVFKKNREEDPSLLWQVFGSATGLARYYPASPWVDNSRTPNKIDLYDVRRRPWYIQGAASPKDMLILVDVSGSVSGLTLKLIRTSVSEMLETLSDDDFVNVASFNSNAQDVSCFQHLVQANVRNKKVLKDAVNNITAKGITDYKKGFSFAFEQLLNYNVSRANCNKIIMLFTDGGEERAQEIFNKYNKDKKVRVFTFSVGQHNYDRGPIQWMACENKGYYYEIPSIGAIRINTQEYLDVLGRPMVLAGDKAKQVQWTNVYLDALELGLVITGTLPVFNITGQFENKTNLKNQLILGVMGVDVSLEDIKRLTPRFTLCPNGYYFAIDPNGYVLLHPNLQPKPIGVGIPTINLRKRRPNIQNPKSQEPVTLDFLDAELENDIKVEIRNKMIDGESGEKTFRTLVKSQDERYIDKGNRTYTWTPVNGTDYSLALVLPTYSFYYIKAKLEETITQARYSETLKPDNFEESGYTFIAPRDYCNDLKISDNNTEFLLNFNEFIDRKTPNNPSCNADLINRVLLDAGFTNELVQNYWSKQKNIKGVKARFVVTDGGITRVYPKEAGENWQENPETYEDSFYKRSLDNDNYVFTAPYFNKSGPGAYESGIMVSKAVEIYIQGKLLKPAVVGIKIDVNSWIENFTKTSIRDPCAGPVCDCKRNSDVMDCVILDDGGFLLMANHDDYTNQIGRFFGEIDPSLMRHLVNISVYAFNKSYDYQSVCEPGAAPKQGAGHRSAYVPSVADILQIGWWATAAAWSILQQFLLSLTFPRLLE
Sequence of human Cav2.2 (P54289 957-1103 partner limits assumed): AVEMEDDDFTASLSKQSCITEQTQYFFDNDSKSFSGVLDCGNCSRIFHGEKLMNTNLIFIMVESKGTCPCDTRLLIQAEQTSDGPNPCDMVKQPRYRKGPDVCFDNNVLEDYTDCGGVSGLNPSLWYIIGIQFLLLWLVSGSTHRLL
Sequence of human Cav2.2 (P54284 whole entry partner): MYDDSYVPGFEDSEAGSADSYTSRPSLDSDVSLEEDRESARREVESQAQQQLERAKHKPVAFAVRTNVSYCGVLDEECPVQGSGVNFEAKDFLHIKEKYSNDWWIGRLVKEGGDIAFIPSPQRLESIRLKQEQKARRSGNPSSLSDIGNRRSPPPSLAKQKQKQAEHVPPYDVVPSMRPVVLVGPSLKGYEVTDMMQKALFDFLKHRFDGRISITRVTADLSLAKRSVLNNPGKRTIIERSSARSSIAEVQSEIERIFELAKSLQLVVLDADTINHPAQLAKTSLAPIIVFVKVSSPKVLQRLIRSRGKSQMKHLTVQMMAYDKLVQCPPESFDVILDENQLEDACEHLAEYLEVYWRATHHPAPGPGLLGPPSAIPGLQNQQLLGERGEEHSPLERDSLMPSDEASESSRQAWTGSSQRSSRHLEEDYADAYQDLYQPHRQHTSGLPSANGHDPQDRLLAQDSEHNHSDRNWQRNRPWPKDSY

Row | IC50 | Compound
1 | 1.48 µM | CN[C@H](C(=O)N[C@H]1CC[C@@H]2CN(S(=O)(=O)c3cccc(C(F)(F)F)c3)C[C@@H]21)C(C)C [Example 389, N^2-methyl-N^1-((3aR,4S,6aS)-2-{[3-(trifluoromethyl)phenyl]sulfonyl}octahydrocyclopenta[c]pyrrol-4-yl)-L-valinamide]
2 | 1.45 µM | NC1(C(=O)N[C@H]2CC[C@@H]3CN(c4cccc(C(F)(F)F)n4)C[C@@H]32)CCCC1 [Example 594, 1-amino-N-{(3aR,4S,6aS)-2-[6-(trifluoromethyl)pyridin-2-yl]octahydrocyclopenta[c]pyrrol-4-yl}cyclopentanecarboxamide]
3 | 2.55 µM | O=S(=O)(N[C@H]1CC[C@@H]2CN(c3cccc(C(F)(F)F)n3)C[C@@H]21)c1cccc(F)c1 [Example 702, 3-fluoro-N-{(3aR,4S,6aS)-2-[6-(trifluoromethyl)pyridin-2-yl]octahydrocyclopenta[c]pyrrol-4-yl}benzenesulfonamide]
4 | 1.3 µM | FC(F)(F)c1ccc(-c2nc(CN[C@H]3CC[C@@H]4CN(c5cccc(C(F)(F)F)n5)C[C@@H]43)c[nH]2)cc1 [Example 742, (3aR,4S,6aS)-N-({2-[4-(trifluoromethyl)phenyl]-1H-imidazol-4-yl}methyl)-2-[6-(trifluoromethyl)pyridin-2-yl]octahydrocyclopenta[c]pyrrol-4-amine]
5 | 0.56 µM | O=C(N[C@H]1CC[C@H]2CN(Cc3cccc(C(F)(F)F)c3)C[C@H]21)C1CCCCCC1 (relative stereo) [Example 128, N-{(3aS*,4S*,6aR*)-2-[3-(trifluoromethyl)benzyl]octahydrocyclopenta[c]pyrrol-4-yl}cycloheptanecarboxamide]
6 | 1.13 µM | CN[C@H](C(=O)N[C@H]1CC[C@@H]2CN(c3cccc(C(F)(F)F)c3)C[C@@H]21)C(C)C [Example 757, N^2-methyl-N-{(3aR,4S,6aS)-2-[3-(trifluoromethyl)phenyl]octahydrocyclopenta[c]pyrrol-4-yl}-L-valinamide]
7 | 15.7 µM | CC(C)N[C@@H](CC(C)(C)C)C(=O)N[C@H]1CC[C@@H]2CN(C(=O)[C@H](Cc3ccccc3)NC(C)C)C[C@@H]21 [Example 489, N^2-isopropyl-N^1-[(3aR,4S,6aS)-2-(N-isopropyl-L-phenylalanyl)octahydrocyclopenta[c]pyrrol-4-yl]-4-methyl-L-leucinamide]
8 | 6.85 µM | O=C(N[C@H]1CC[C@@H]2CN(c3ccccc3Cl)C[C@@H]21)[C@@H]1C[C@@H](F)CN1 [Example 659, (4R)-N-[(3aR,4S,6aS)-2-(2-chlorophenyl)octahydrocyclopenta[c]pyrrol-4-yl]-4-fluoro-L-prolinamide]
9 | 0.5 µM | CC(C)(C)[C@H](N)C(=O)N[C@H]1CC[C@@H]2CN(c3cccc(C(F)(F)F)n3)C[C@@H]21 [Example 591, 3-methyl-N-{(3aR,4S,6aS)-2-[6-(trifluoromethyl)pyridin-2-yl]octahydrocyclopenta[c]pyrrol-4-yl}-L-valinamide]
10 | 8.54 µM | O=C(N[C@H]1CC[C@H]2CNC[C@H]21)C(C1CCCCC1)C1CCCCC1 [Example 53, 2,2-dicyclohexyl-N-[(3aS,4S,6aR)-octahydrocyclopenta[c]pyrrol-4-yl]acetamide]
11 | 0.53 µM | CCCCc1nc(CN[C@H]2CC[C@@H]3CN(c4cccc(C(F)(F)F)n4)C[C@@H]32)c[nH]1 [Example 674, (3aR,4S,6aS)-N-[(2-butyl-1H-imidazol-4-yl)methyl]-2-[6-(trifluoromethyl)pyridin-2-yl]octahydrocyclopenta[c]pyrrol-4-amine]
12 | 2.11 µM | CCCC[C@H](NC)C(=O)N[C@H]1CC[C@@H]2CN(c3ccc(C(F)(F)F)cn3)C[C@@H]21 [Example 601, N^2-methyl-N-{(3aR,4S,6aS)-2-[5-(trifluoromethyl)pyridin-2-yl]octahydrocyclopenta[c]pyrrol-4-yl}-L-norleucinamide]
13 | 10.6 µM | CCC[C@H](NC)C(=O)N[C@H]1CC[C@@H]2CN(c3ccc(OC(F)(F)F)cc3)C[C@@H]21 [Example 719, N^2-methyl-N-{(3aR,4S,6aS)-2-[4-(trifluoromethoxy)phenyl]octahydrocyclopenta[c]pyrrol-4-yl}-L-norvalinamide]
14 | 0.76 µM | O=C(N[C@H]1CC[C@@H]2CN(Cc3cccc(C(F)(F)F)c3)C[C@@H]21)C(C1CCCCC1)C1CCCCC1 [Example 156, 2,2-dicyclohexyl-N-{(3aR,4S,6aS)-2-[3-(trifluoromethyl)benzyl]octahydrocyclopenta[c]pyrrol-4-yl}acetamide]
15 | 2.9 µM | CN[C@@H](CC(C)C)C(=O)N[C@H]1CC[C@@H]2CN(c3ccccc3C(F)F)C[C@@H]21 [Example 771, N-{(3aR,4S,6aS)-2-[2-(difluoromethyl)phenyl]octahydrocyclopenta[c]pyrrol-4-yl}-N^2-methyl-L-leucinamide]
16 | 1.11 µM | O=C(N[C@H]1CC[C@@H]2CN(c3cccc(C(F)(F)F)n3)C[C@@H]21)c1ccc(-c2cccs2)o1 [Example 571, 5-(2-thienyl)-N-{(3aR,4S,6aS)-2-[6-(trifluoromethyl)pyridin-2-yl]octahydrocyclopenta[c]pyrrol-4-yl}-2-furamide]
17 | 3.77 µM | CN[C@@H](CC(C)C)C(=O)N[C@H]1CC[C@@H]2CN(c3ccc(C#N)cc3)C[C@@H]21 [Example 647, N-[(3aR,4S,6aS)-2-(4-cyanophenyl)octahydrocyclopenta[c]pyrrol-4-yl]-N^2-methyl-L-leucinamide]
18 | 1.12 µM | O=C(N[C@H]1CC[C@H]2CN(Cc3ccccc3F)C[C@H]21)C(C1CCCCC1)C1CCCCC1 [Example 55, 2,2-dicyclohexyl-N-[(3aS,4S,6aR)-2-(2-fluorobenzyl)octahydrocyclopenta[c]pyrrol-4-yl]acetamide]
19 | 4.5 µM | O=S(=O)(N[C@H]1CC[C@@H]2CN(c3cccc(C(F)(F)F)n3)C[C@@H]21)c1ccccc1Cl [Example 701, 2-chloro-N-{(3aR,4S,6aS)-2-[6-(trifluoromethyl)pyridin-2-yl]octahydrocyclopenta[c]pyrrol-4-yl}benzenesulfonamide]
20 | > 30 µM | CC(C)C[C@@H](C(=O)N[C@@H]1CC[C@H]2CN(Cc3ccccc3)C[C@H]21)N1CCCC1 [Example 250, (2S)-N-[(3aS,4R,6aR)-2-benzyloctahydrocyclopenta[c]pyrrol-4-yl]-4-methyl-2-pyrrolidin-1-ylpentanamide]
21 | 0.61 µM | Fc1ccc2nc(CN[C@H]3CC[C@@H]4CN(c5cccc(C(F)(F)F)n5)C[C@@H]43)[nH]c2c1 [Example 691, (3aR,4S,6aS)-N-[(6-fluoro-1H-benzimidazol-2-yl)methyl]-2-[6-(trifluoromethyl)pyridin-2-yl]octahydrocyclopenta[c]pyrrol-4-amine]
22 | 1.32 µM | O=C(N[C@H]1CC[C@@H]2CN(c3cccc(C(F)(F)F)n3)C[C@@H]21)c1ccccc1F [Example 563, 2-fluoro-N-{(3aR,4S,6aS)-2-[6-(trifluoromethyl)pyridin-2-yl]octahydrocyclopenta[c]pyrrol-4-yl}benzamide]
23 | 0.98 µM | COc1ccc(-c2n[nH]cc2CN[C@H]2CC[C@@H]3CN(c4cccc(C(F)(F)F)n4)C[C@@H]32)cc1 [Example 681, (3aR,4S,6aS)-N-{[3-(4-methoxyphenyl)-1H-pyrazol-4-yl]methyl}-2-[6-(trifluoromethyl)pyridin-2-yl]octahydrocyclopenta[c]pyrrol-4-amine]
24 | 0.58 µM | FC(F)(F)c1cccc(N2C[C@H]3CC[C@H](NCc4cc5cccnc5s4)[C@H]3C2)n1 [Example 727, (3aR,4S,6aS)-N-(thieno[2,3-b]pyridin-2-ylmethyl)-2-[6-(trifluoromethyl)pyridin-2-yl]octahydrocyclopenta[c]pyrrol-4-amine]
25 | 2.32 µM | CN[C@H](CC(C)C)C(=O)N[C@H]1CC[C@@H]2CN(c3ccc(C(F)(F)F)cc3)C[C@@H]21 [Example 760, N^2-methyl-N-{(3aR,4S,6aS)-2-[4-(trifluoromethyl)phenyl]octahydrocyclopenta[c]pyrrol-4-yl}-D-leucinamide]

same assay, conditions: read-out: IC50 (μM) or percent inhibition (* indicates 3 minute incubation, otherwise 60 minute); IC50; 60 minute pre-incubation with compound; IMR32 cells, 80 mM KCl depolarization

Row | IC50 | Compound
26 | > 30 µM | N^1-[(3aR,4S,6aS)-2-(4-fluorobenzyl)octahydrocyclopenta[c]pyrrol-4-yl]-N^2-methyl-L-norvalinamide [Example 378]
27 | 3.83 µM | CCC[C@H](NC)C(=O)N[C@H]1CC[C@@H]2CN(S(=O)(=O)c3ccc(C(F)(F)F)cc3)C[C@@H]21 [Example 405, N^2-methyl-N^1-((3aR,4S,6aS)-2-{[4-(trifluoromethyl)phenyl]sulfonyl}octahydrocyclopenta[c]pyrrol-4-yl)-L-norvalinamide]
28 | 1.21 µM | CC(C)C[C@@H](C(=O)N[C@H]1CC[C@H]2CN(Cc3cccc(C(F)(F)F)c3)C[C@H]21)N(C)S(C)(=O)=O [Example 167, N^2-methyl-N^2-(methylsulfonyl)-N^1-{(3aS,4S,6aR)-2-[3-(trifluoromethyl)benzyl]octahydrocyclopenta[c]pyrrol-4-yl}-L-leucinamide]
29 | 3.36 µM | CC(C)(C)C(C(=O)N[C@H]1CC[C@@H]2CN(Cc3ccccc3)C[C@@H]21)c1ccccc1 (stereo partly drawn) [Example 52, N-[(3aR,4S,6aS)-2-benzyloctahydrocyclopenta[c]pyrrol-4-yl]-3,3-dimethyl-2-phenylbutanamide]
30 | 15.3 µM | O=C(N[C@@H]1CC[C@H]2CN(S(=O)(=O)c3ccc(F)cc3)C[C@H]21)[C@@H]1CCCCN1 [Example 399, (2S)-N-{(3aS,4R,6aR)-2-[(4-fluorophenyl)sulfonyl]octahydrocyclopenta[c]pyrrol-4-yl}piperidine-2-carboxamide]
31 | 2.04 µM | Cc1ccccc1CN1C[C@H]2CC[C@H](NC(=O)C(c3ccccc3)C(C)C)[C@H]2C1 (stereo partly drawn) [Example 92, 3-methyl-N-[(3aR,4S,6aS)-2-(2-methylbenzyl)octahydrocyclopenta[c]pyrrol-4-yl]-2-phenylbutanamide]

Row | Compound | IC50
32 | (3aR,4S,6aS)-N-[(4-chloro-1H-indol-3-yl)methyl]-2-[6-(trifluoromethyl)pyridin-2-yl]octahydrocyclopenta[c]pyrrol-4-amine [Example 692] | 0.99 µM
